# According to US20110280940A1, “Di-Vanilloyl And Tri-Vanilloyl Derivatives For Use In Anti-Cancer Therapy” (priority 2008, published 2011):
# Like-named read-outs stand apart in the source and are kept apart here.
# Assays:
# [1] = system: U373-MG glioma cell line; assay: Cellular imaging (quantitative videomicroscopy), global growth ratio, U373; type: cell-based; conditions: Homo sapiens, 72 h, read-out: Global Grow Ratio Treated/Ct (GGR T/Ct) determined by Video Quantitative microscopy, U373
# [2] = biological target: T1, Aurora B kinase (Homo sapiens, UniProt Q96GD4); assay: Radiometric protein kinase assay (33 PanQinase), Aurora B; type: biochemical; conditions: for IC50: dose-response 0-100 μM, n=3, read-out: IC50: Concentration of drug needed in order to inhibit kinase activity by 50%, AurB; for inhibition at 57 µM: read-out: inhibition of Aurora B activity
# T1 construct: made in house
# T1 sequence (Q96GD4 whole entry): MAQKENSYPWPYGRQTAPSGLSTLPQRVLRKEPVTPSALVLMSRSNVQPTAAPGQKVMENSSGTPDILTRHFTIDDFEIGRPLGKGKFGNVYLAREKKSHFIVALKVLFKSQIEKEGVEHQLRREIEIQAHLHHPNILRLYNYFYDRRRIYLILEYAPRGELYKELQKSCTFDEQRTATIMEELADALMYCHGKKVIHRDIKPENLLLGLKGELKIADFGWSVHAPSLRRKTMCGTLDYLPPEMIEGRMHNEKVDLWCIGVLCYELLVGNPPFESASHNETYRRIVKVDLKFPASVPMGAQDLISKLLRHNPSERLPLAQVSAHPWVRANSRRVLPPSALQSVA
# Procedure: Note that at a concentration of 20 μM of the DLT compounds, the activity of the three Aurora kinases is reduced by approximately 40-50%, whereas at concentrations of 50 μM, i.e. the concentration used in the anti-proliferation assays of example 2B, the activity of said kinases is reduced by 60-75%.
# The kinase inhibition profile of DLT95-Cl at 20 μM was determined using 255 protein kinases. Residual activity values were measured by testing each compound at one concentration in duplicate in each kinase assay. A radiometric protein kinase assay (33 PanQinase®Activity Assay) was used for measuring the kinase activity of 250 protein kinases. All kinase assays were performed in 96-well flashPlates™ from Perkin Elmer (Boston, Mass., USA) in a 50 μl reaction volume. The reaction cocktail was pipetted in 4 steps in the following order: • 10 μl of non-radioactive ATP solution (in H2O) • 25 μl of assay buffer/[γ-33P]-ATP mixture • 5 μl of test sample in 10% DMSO • 10 μl of enzyme/substrate mixture
# The assay for all enzymes contained 60 mM HEPES-NaOH, pH 7.5, 3 mM MgCl2, 3 mM MnCl2, 3 μM Na-orthovanadate, 1.2 mM DTT, 50 μg/ml PEG20000, 1 μM ATP/[γ-33P]-ATP (approx. […] per well), protein kinase, and substrate. All PKC assays (except the PKC-mu and the PKC-nu assay) additionally contained 1 mM CaCl2, 4 mM EDTA, 5 μg/ml Phosphatidylserine and 1 μg/ml 1,2-Dioleyl-glycerol. The MYLK2, CAMK1D, CAMK2A, CAMK2B, CAMK2D, CAMK4, CAMKK2, DAPK2 and EEF2K assays additionally contained 1 μg/ml Calmodulin and 0.5 mM CaCl2. The PRKG1 and PRKG2 assays additionally contained 1 μM cGMP.
# The protein kinases were expressed either in Sf9 insect cells or in E. coli as recombinant GST-fusion proteins or as His-tagged proteins. All kinases were produced from human cDNAs. Kinases were purified by affinity chromatography using either GSH-agarose (Sigma) or Ni-NTH-agarose (Qiagen). The purity of the protein kinases was examined by SDS-PAGE/coomassie staining. The identity of the protein kinases was checked by mass spectroscopy.
# The reaction cocktails were incubated at 30° C. for 60 minutes. The reaction was stopped with 50 μl of 2% (v/v) H3PO4, plates were aspirated and washed two times with 200 μl 0.9% (w/v) NaCl. All assays were performed with a BeckmanCoulter Biomek 2000/SL robotic system.
# Incorporation of ^33Pi (counting of “cpm”) was determined with a microplate scintillation counter (Microbeta, Wallac).
# For each kinase, the median value of the cpm of three wells with complete reaction cocktails, but without kinase, was defined as “low control” […]. This value reflects unspecific binding of radioactivity to the plate in the absence of protein kinase but in the presence of the substrate. Additionally, for each kinase the median value of the cpm of three other wells with the complete reaction cocktail, but without any compound, was taken as the “high control”, i.e. full activity in the absence of any inhibitor […]. The difference between high and low control of was taken as 100% activity for each kinase. As part of the data evaluation the low control value of each kinase was subtracted from the high control value as well as from their corresponding “compound values”. The residual activity (in %) for each compound well was calculated by using the following formula: Res. Activity (%)=100×[(cpm of compound−low control)/(high control−low control)]
Structure (SMILES),activity at 50 µM ([1]; 50 μM),IC50 [2],activity at 50 µM [1],inhibition at 57 µM [2]
"COc1cc(C(=O)OCCOC(=O)c2ccc(O)c(OC)c2)ccc1O [DLT1, Ethane-1,2-diyl bis-(4-hydroxy-3-methoxybenzoate)]",30%,,,
"COc1cc(C(=O)OCCCCCCOC(=O)c2ccc(O)c(OC)c2)ccc1O [DLT11, Hexane-1,6-diyl bis-(4-hydroxy-3-methoxybenzoate)]",20%,,,
"COc1cc(C(=O)OCc2cc(COC(=O)c3ccc(O)c(OC)c3)cc(COC(=O)c3ccc(O)c(OC)c3)c2)ccc1O [DLT95, [3,5-bis[(4-hydroxy-3-methoxy-benzoyl)oxymethyl]phenyl]methyl 4-hydroxy-3-methoxy-benzoate]",,3400 nM,10%,
"O=C(OCc1cc(COC(=O)c2ccc(O)c(Cl)c2)cc(COC(=O)c2ccc(O)c(Cl)c2)c1)c1ccc(O)c(Cl)c1 [DLT95-Cl, [3,5-bis[(4-hydroxy-3-chloro-benzoyl)oxymethyl]phenyl]methyl 4-hydroxy-3-chloro-benzoate]",,900 nM,,≥ 50%
"O=C(OCc1cc(COC(=O)c2ccc(O)c(F)c2)cc(COC(=O)c2ccc(O)c(F)c2)c1)c1ccc(O)c(F)c1 [DLT95-F, [3,5-bis[(4-hydroxy-3-fluoro-benzoyl)oxymethyl]phenyl]methyl 4-hydroxy-3-fluoro-benzoate]",,2400 nM,,≥ 50%
"COc1cc(C(=O)O)ccc1O [vanillic acid, reference compound]",,> 100000 nM,,
